Patent publication US20260022143A1, “Cyclic Peptide Inhibitors of IL-23” (JANSSEN PHARMACEUTICA NV, priority 2022, published 2026)
Starred links: 1 amine or outer side, 2 acyl side, 3 side chain; linkers in the order of their positions; H or OH if unused. Positions of bridges follow the written chain, without caps; N, C: chain ends. Non-standard residues stand in square brackets, D forms with d. Residues, ends and D or L forms follow the SMILES beside them. Groups on a side chain read outwards from the residue. *: point of attachment. Me3N+CH2CH2(OCH2CH2)4CO = C[N+](C)(C)CCOCCOCCOCCOCCC(=O)*; Trp(7-Me) = Cc1cccc2c(C[C@H](N)C(=O)O)c[nH]c12; 3Oxa8azabicyclo(3.2.1)octane = C1CC2COCC1N2*; 2Nal = N[C@@H](Cc1ccc2ccccc2c1)C(=O)O; AEF = NCCOc1ccc(C[C@H](N)C(=O)O)cc1; X19 = C[N+](C)(C)C[C@@H](CC(=O)O)N*; X10 = C[N+](C)(C)C[C@H](CC(=O)O)N*; dLys(Me) = CNCCCC[C@@H](N)C(=O)O; 3Pal = N[C@@H](Cc1cccnc1)C(=O)O; Pen = CC(C)(S)[C@H](N)C(=O)O; Suc = O=C(CCC(=O)[*:2])[*:1]; Thp = NC1(C(=O)O)CCOCC1; Sar = CNCC(=O)O

Test: Exposed Polar Surface Area (EPSA)
Type: physicochemical
Conditions: SFC on Chirex 3014 column; sample 1 mM DMSO stock; read-out: EPSA
In short: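 Chirex 3014 column, 35 °C, 4 mL/min; CO2/MeOH + 20 mM NH4 formate, 5→60% modifier at 20%/min. UV/MS detection. EPSA (Å^2) from retention time vs 8-standard calibration line; duplicates; 1 mM DMSO stock injected undiluted.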

| Structure (SMILES) | EPSA |
| --- | --- |
| CC(=O)NCCCC[C@@H]1NC(=O)[C@H](Cc2c[nH]c3c(C)cccc23)NC(=O)[C@H]([C@@H](C)O)NC(=O)[C@H](CC(N)=O)NC(=O)[C@@H](NC(=O)[C@@H](CCCCNC(=O)CCC(=O)N[C@@H](CC(=O)O)C[N+](C)(C)C)NC(C)=O)C(C)(C)SSC(C)(C)[C@@H](C(=O)N[C@@H](Cc2ccc(OCCN)cc2)C(=O)N[C@@H](Cc2ccc3ccccc3c2)C(=O)NC2(C(=O)N[C@@H](CCCCNC(C)=O)C(=O)N[C@@H](CC(N)=O)C(=O)N[C@@H](Cc3cccnc3)C(=O)N(C)CC(N)=O)CCOCC2)NC1=O [compound 108] (Ac-[dK]([Suc-X10])[Pen]NT[Trp(7-Me)]K(Ac)[Pen][AEF][2Nal][Thp]K(Ac)N[3Pal][Sar]-NH2; disulfide 2-7) | 173 A^2 |
| CC(=O)NCCCC[C@@H]1NC(=O)[C@H](Cc2c[nH]c3c(C)cccc23)NC(=O)[C@H]([C@@H](C)O)NC(=O)[C@H](CC(N)=O)NC(=O)[C@@H](NC(C)=O)C(C)(C)SSC(C)(C)[C@@H](C(=O)N[C@@H](Cc2ccc(OCCN)cc2)C(=O)N[C@@H](Cc2ccc3ccccc3c2)C(=O)NC2(C(=O)N[C@@H](CCCCNC(=O)CCC(=O)N[C@H](CC(=O)O)C[N+](C)(C)C)C(=O)N[C@@H](CC(N)=O)C(=O)N[C@@H](Cc3cccnc3)C(=O)N(C)CC(N)=O)CCOCC2)NC1=O [compound 109] (Ac-[Pen]NT[Trp(7-Me)]K(Ac)[Pen][AEF][2Nal][Thp]K([Suc-X19])N[3Pal][Sar]-NH2; disulfide 1-6) | 171 A^2 |
| CC(=O)NCCCC[C@@H]1NC(=O)[C@H](Cc2c[nH]c3c(C)cccc23)NC(=O)[C@H]([C@@H](C)O)NC(=O)[C@H](CC(N)=O)NC(=O)[C@@H](NC(C)=O)C(C)(C)SSC(C)(C)[C@@H](C(=O)N[C@@H](Cc2ccc(OCCN)cc2)C(=O)N[C@@H](Cc2ccc3ccccc3c2)C(=O)NC2(C(=O)N[C@@H](CCCCNC(=O)CCC(=O)N[C@@H](CC(=O)O)C[N+](C)(C)C)C(=O)N[C@@H](CC(N)=O)C(=O)N[C@@H](Cc3cccnc3)C(=O)N(C)CC(N)=O)CCOCC2)NC1=O [compound 110] (Ac-[Pen]NT[Trp(7-Me)]K(Ac)[Pen][AEF][2Nal][Thp]K([Suc-X10])N[3Pal][Sar]-NH2; disulfide 1-6) | 171 A^2 |
| CC(=O)NCCCC[C@@H]1NC(=O)[C@H](Cc2c[nH]c3c(C)cccc23)NC(=O)[C@H]([C@@H](C)O)NC(=O)[C@H](CC(N)=O)NC(=O)[C@@H](NC(C)=O)C(C)(C)SSC(C)(C)[C@@H](C(=O)N[C@@H](Cc2ccc(OCCN)cc2)C(=O)N[C@@H](Cc2ccc3ccccc3c2)C(=O)NC2(C(=O)N[C@H](CCCCN(C)C(=O)CCOCCOCCOCCOCC[N+](C)(C)C)C(=O)N[C@@H](CC(N)=O)C(=O)N[C@@H](Cc3cccnc3)C(=O)N(C)CC(N)=O)CCOCC2)NC1=O [compound 111] (Ac-[Pen]NT[Trp(7-Me)]K(Ac)[Pen][AEF][2Nal][Thp][dLys(Me)](Me3N+CH2CH2(OCH2CH2)4CO)N[3Pal][Sar]-NH2; disulfide 1-6) | 153 A^2 |
| CC(=O)NCCCC[C@@H]1NC(=O)[C@H](Cc2c[nH]c3c(C)cccc23)NC(=O)[C@H]([C@@H](C)O)NC(=O)[C@H](CC(N)=O)NC(=O)[C@@H](NC(C)=O)C(C)(C)SSC(C)(C)[C@@H](C(=O)N[C@@H](Cc2ccc(OCCN)cc2)C(=O)N[C@@H](Cc2ccc3ccccc3c2)C(=O)NC2(C(=O)N[C@@H](CCC(=O)O)C(=O)N[C@@H](CC(N)=O)C(=O)N[C@@H](Cc3cccnc3)C(=O)N(C)CC(=O)N3C4CCC3COC4)CCOCC2)NC1=O [compound 115] (Ac-[Pen]NT[Trp(7-Me)]K(Ac)[Pen][AEF][2Nal][Thp]EN[3Pal][Sar]-{3Oxa8azabicyclo(3.2.1)octane}; disulfide 1-6) | 171 A^2 |
